Experimental data reported in patent US20160271145A1, “METHOD FOR ENLARGING THE PARTICLE SIZE OF CRYSTALLINE MICROPARTICLES OF ACTIVE SUBSTANCE” (Jesalis Pharma GmbH, priority 2012, published 2016).

Key:
[1] = microparticles by the method of DE 102008037025 A1, as stated in the background; cited from earlier work
[2] = particle size (d50) and span by laser diffraction, Mastersizer E; assay type: physicochemical; conditions: for d50 value of the particle size distribution (first d50): acetone:water 1:1
Source text: The particle size distribution and the diameters of the particles within the framework of the invention are relative to volume. dx means that x percent by volume (vol. %) of the particles have a diameter which is smaller than the stated value. With a d50 value of 1 μm therefore 50 vol. % of the particles have a diameter smaller than 1 μm (micrometre). If d10 or […] is 1 μm, 10 or 90 vol. %, respectively, of the particles have a diameter smaller than 1 μm. The d50 value is also called average particle size or average particle diameter.
Within the framework of the invention, the average particle size (d50 values) and the particle size distribution were measured by means of laser diffraction, which provides a distribution of the particle sizes. A Mastersizer E (Malvern Instruments) was used. 5 mg solid is dispersed for 20 min in 5 ml 0.1% aqueous sodium dodecyl sulphate solution using ultrasound (2 mm sonotrode, sonicator UPS 200, Dr. Hielscher GmbH, 30% amplitude) and placed in the measurement cell of the Mastersizer E, an optical concentration of 18% is set and measurement is carried out (Fraunhofer evaluation). The span was calculated from the d10, d50 and d90 values ((d90 −d10);d50 ).

[3] = granulometric analysis and span by laser diffraction (Sympatec, RODOS), reference test according to DE 102008037025 A1; assay type: physicochemical; conditions: Comparison example, spray-dried, dispersing pressure 5 bar
Description: A 100-ml stirred vessel with blade stirrer is charged with 160 g of Y-stabilized zirconium oxide spheres with a diameter of 0.5 mm plus 30 ml of water. A solution of 0.6 g fluticasone propionate in 10 ml acetone is added to these, with stirring. After stirring for 5 min, a solution of 1.8 g fluticasone in 30 ml acetone and in the same ratio 90 ml water are added dropwise within 10 min, with stirring at 1300 rev/min. Simultaneously, product suspension is drawn off, with approximately constant filling level. Addition and product withdrawal can also take place quasicontinuously in smaller portions without any adverse effect on the result, if the above time frame is maintained. After addition, to complete the yield rinsing is carried out with approx. 60 ml water. Alternatively, the suspension in the crystallizer can be left as starting suspension for the subsequent batch. Altogether, 180 g of suspension with a solids content of 13 mg per ml is obtained. The suspension is then spray-dried Granulometric analysis and span determination were effected by means of laser diffraction (Sympatec Helps, RODOS dispersing system, dispersing pressure 5 bar).

[4] = habit of the particles evaluated on a microscope image (ratio of largest to smallest size); assay type: physicochemical
Description: The predominantly spherical shape manifests itself in that in this preferred embodiment the ratio of the largest to the smallest size of the individual particles is on average ≦2. This ratio is determined by measurement on a microscope image of the particles, by determining the ratio of the largest to the smallest size of each individual particle for at least 50 randomly selected particles and then ascertaining the average over the at least 50 particles. Preferably, the ratio of the largest to the smallest size of the individual particles is on average ≦1.6.
Immediately after the end of the stirring time, the batch is filtered using a nutsch filter with a negative pressure of 100 mbar on the filtrate side and washed with 1.0 l water. The moist filter cake has a mass of approx. 1100 g and is transferred into a 3-l container, topped up to 2160 g with water and redispersed with the Ultra Turrax T50 (|KA) at 12,000 1/min for 10 min. After this, the third d50 value is determined to be 1.28 μm from this second suspension. The span value of the particles is 1.28. The habit is evaluated microscopically as stated above (light microscope image). Habit of the particles: spherical; ratio of the largest to the smallest size of the individual particles on average=1.48. The second suspension is then spray-dried and the particles of fluticasone propionate are obtained.

[5] = solubility of the active substance in the solvent-antisolvent (acetone-water) mixture of the first suspension; assay type: physicochemical; conditions: acetone content reduced to 42% by addition of water
Source text: Solubilities of the active substance in the solvent-antisolvent mixture of the first suspension of 0.001-0.5 wt. % are suitable for carrying out the method according to the invention. Solubilites of 0.01-0.2 wt. %, in particular 0.02-0.2 wt. % are preferred. By solubility is meant, within the framework of the invention, the usual solubility known to a person skilled in the art, namely the solubility of a substance in thermodynamic equilibrium at room temperature in the solvent-antisolvent mixture. The solubilities are not relative to volume, i.e., they specify the solubility of the active substance in the total volume of the liquid phase of the suspension. It is clear from the stated solubilities that microparticles of active substance are present throughout the method.

[6] = Example 2, mixture of the second suspensions of the preceding and subsequent batch
[7] = Example 1, light microscope image

second d50 ([2]; Example 1, after 4.5 h stirring, 42% acetone): 1.12 μm
span value of the particles ([2]; Example 1, second suspension): 1.28
third d50 value ([2]; Example 1, second suspension after further 17 h stirring, filtration and redispersing in water): 1.28 μm
d50 value of the particle size distribution (first d50) ([2]; Example 1, starting suspension): 0.98 μm
d50 value [2, 6]: 1.28 μm
span value of the distribution [2, 6]: 1.28
second d50 value ([2]; Example 2, preceding batch, after 4.0 h stirring, 42% acetone): 1.12 μm
span value of the distribution ([2]; Example 2, preceding batch, second suspension): 1.29
third d50 value ([2]; Example 2, preceding batch, second suspension after further 13 h stirring): 1.24 μm
d50 value of the particle size distribution (first d50) ([2]; Example 2, preceding batch, starting suspension): 0.99 μm
intermediate d50 value ([2]; Example 2, subsequent batch, after 3.5 h stirring, 42% acetone): 1.09 μm
span value of the distribution ([2]; Example 2, subsequent batch, second suspension): 1.24
third d50 value ([2]; Example 2, subsequent batch, second suspension, stirring time increased to 18 h): 1.30 μm
d50 value of the particle size distribution (first d50) ([2]; Example 2, subsequent batch, starting suspension): 0.97 μm
d50 [3]: 1.47 μm
span [3]: 1.78
habit of the particles [4, 7]: spherical
ratio of the largest to the smallest size of the individual particles on average [4, 7]: 1.48
habit of the particles ([4]; Example 2, subsequent batch): spherical
ratio of the largest to the smallest size of the individual particles on average ([4]; Example 2, subsequent batch): 1.45
solubility of fluticasone propionate [5]: 0.032 wt. %
SMILES: CCC(=O)O[C@]1(C(=O)SCF)[C@H](C)C[C@H]2[C@@H]3C[C@H](F)C4=CC(=O)C=C[C@]4(C)[C@@]3(F)[C@@H](O)C[C@@]21C [fluticasone propionate]
d50 values [1]: 1-2 μm
span values [1]: ≥ 1.7
